Source: publication PMC9727064, “Performance assessment and economic analysis of a human Liver-Chip for predictive toxicology” (Communications Medicine, 2022)
Values joined by “and” are separate entries in the source; they are usually repeats but may differ in a detail not shown here. Equal entries are not always repeated. Where two headings read alike, the source gives them in different places.

How the values were obtained:
[1] = tested on: human Liver-Chip (primary human hepatocytes); test: Liver-Chip alanine transaminase (ALT) release in top channel effluent (ELISA); assay type: cell-based
From the text: (§1) Cycles 1 to 4 tested 6–8 concentrations in duplicate for each of 10–13 drugs. To determine which sampling strategy was optimal for cycles 1 to 4 (16 doses × 1 replicate, 8 × 2, 5 × 3, or 4 × 4), we generated three different “dose-response” synthetic datasets, each distorted by different noise levels (low, medium, or high). For each of these datasets, we performed curve-fitting analyses and calculated the Root Mean Square Error between the “true” and estimated IC50 parameter. […] Some drugs were also repeated across cycles (on different donors or at different concentrations) to ensure experimental robustness. However, to replicate a more typical study design likely to be carried out by scientists in the pharmaceutical industry, we created cycle 5 with 6 drugs, where each was tested in 4 concentrations in triplicate. For each cycle, chips were dosed with drug over 8 days (referred to as Day 0 through Day 7).
(§2) The drug dosing concentrations were determined from the unbound human Cmax of each drug. First, the expected fraction of drug unbound in media with 2% FBS was extrapolated from plasma binding data for each drug. Dosing concentrations were then back calculated such that the unbound fraction in media would reflect relevant multiples of unbound human Cmax (Supplementary Data 1).
(§3) On the first dosing day (Day 0), all chips were imaged using the ECHO microscope. Five hundred microliters of effluent was collected from all four reservoirs of the pod and placed in a labeled 96-well plate. After collection, all the remaining media was carefully aspirated before dosing with 3.8 mL of corresponding dosing solution. Dosing occurred on study days 0, 2, and 4 for chips flowing at 30 µL/h, and on days 0, 1, 2, 3, 4, 5, and 6 for chips flowing at 150 µL/h. Effluent collection occurred on days 1, 3, and 7.
(§4) Top channel outlet effluents were analyzed to quantify albumin and alanine transaminase (ALT) levels on days 1, 3, and 7 using sandwich ELISA kits (Abcam, Albumin ab179887, ALT ab234578) according to vendor-provided protocols. Frozen (−80 °C) effluent samples were thawed overnight at 4 °C prior to assay. The Hamilton Vantage liquid handling platform was used to manage effluent dilutions (1:500 for albumin, neat for ALT), preparation of standard curves, and addition of antibody cocktail. Absorbance at 450 nm was measured using the SynergyNeo Microplate Reader (BioTek).

[2] = tested on: human Liver-Chip (hepatocytes and non-parenchymal cells); settings: for Morphology Score: injury score 0-4, averaged, one line per replicate chip
Description: At least four to six brightfield images were acquired per chip for morphology analysis. […] Brightfield images were acquired across three fields of view on days 1, 3, and 7 for each cycle. Cytotoxicity classification was performed while acquiring images for both NPCs and hepatocytes. Images were then scored zero to four by blinded individuals (n = 2) based on severity of agglomeration of cell debris for both channels. The scoring matrix and representative images have been included in the supplement (Supplementary Fig. 1).
Hepatocyte layer on Chips
Non-parenchymal cell layer on Chips
Supplementary Figure 1. (a) Representative brightfield images to depict the cellular morphology score in the top channel of the Liver-Chip which contains hepatocytes. A score of 0 represents no hepatotoxicity detected, which is defined by 95-100% healthy hepatocyte morphology, hexagonal shape containing binucleated cells, clear cell cytoplasm, distinctive cell junctions and less than 5% dead cells. A score of 1 […]
cells. A score of 2 represents mild hepatotoxicity with > 70% monolayer of hepatocytes visible, evidence that cells have begun to lose their distinct cell junctions, many cells contain a granulated cytoplasm but < 30% are dead cells. A score of 3 represents moderate hepatotoxicity with severe granulation of cytoplasm and most of the cells have lost their junctions. Approximately 50% of the cells are considered dead. A score of 4 represents severe hepatotoxicity with agglomeration of cell debris and > 50% of the cells are considered dead. The pores on the membrane become visible as there is no longer a cellular monolayer. (b) Representative brightfield images to depict the cellular morphology score in the bottom channel of the Liver-Chip which contains non-parenchymal cells. A score of 0 represents no cytotoxicity detected, with an intact monolayer and <1% of the cells are dead. A score of 1 represents at least 90% of the monolayer is present and there are <10% dead cells. A score of 2 represents mild cytotoxicity with > 80% of the monolayer present and < 20% are dead cells. A score of 3 represents moderate cytotoxicity with > 50% of the monolayer present and < 50% are dead cells. A score of 4 represents severe cytotoxicity with > 50% of the cells are considered dead. (bar, 50 μm). […]

human Liver-Chip = test: Liver-Chip DILI prediction: minimum toxic concentration and margin of safety (MOS)-like figure; settings: for Chip MOS both donors / Chip MOS donor 1 / Chip MOS donor 2: free IC50 concentration in the assay divided by total concentration of drug in human plasma at Cmax; for Liver-Chip toxicity determination, MOS-like figure against threshold value of 50: not corrected for protein binding, donors one and two;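 as to Chip MOS both donors: Toxic concentration is the lowest across albumin IC50 and ALT and morphology endpoints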;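 as to Chip MOS donor 1: Toxic concentration is the lowest across albumin IC50 and ALT and morphology endpoints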;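 as to Chip MOS donor 2: Toxic concentration is the lowest across albumin IC50 and ALT and morphology endpoints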
From the text: Because the fundamental principles of drug action dictate that free (unbound) drug concentrations drive drug effects, we explored an alternative methodology for calculating the MOS-like values by accounting for protein binding using a previously reported approach. Accordingly, we reanalyzed the findings for the 27 drugs in our study by accounting for protein binding.

[3] = cited from earlier work
[4] = cited from earlier work; remark: listed apart in the source
[5] = tested on: clinical drug-induced liver injury; settings: clinical DILI severity category 1 to 5; cited from earlier work
[6] = tested on: human Liver-Chip (primary human hepatocytes); test: Liver-Chip albumin production in top channel effluent (ELISA); assay type: cell-based
From the text: as §1, §2, §3, §4
All statistical analyses were conducted in R[21] (version 4.1.2) and figures were produced using the R package ggplot2[22] (version 3.3.5). The dose-response analysis (Fig. 4) was carried out using the popular drc R package developed by Ritz et al.[23] using the generalized log-logistic dose-response model. The error bars in Figs. 3 and 4, correspond to the standard errors of the mean. The circles in Fig. 3 correspond to the samples used to calculate the corresponding statistics. The analysis of significance in Fig. 3 was performed using paired t-test across different days (same donor) and unpaired t-test across different donors (same day). In Fig. 3 the number of samples used were n = 3 for donor two, and n = 4 for donor three. For both donors, the number of the freshly thawed hepatocyte samples used to estimate the corresponding log2(Fold Change) were n = 4. Finally, the analysis of significance in Fig. 3 was performed using paired t-test.

[7] = expanded drug list, lowest concentration causing an increase in ALT release
[8] = expanded drug list, lowest multiplier causing a 50% reduction in albumin production
[9] = concentration causing a 50% reduction in albumin production
[10] = lowest concentration causing an increase in ALT protein
[11] = lowest concentration causing an increase in cellular morphology score, donor 1
[12] = lowest concentration causing an increase in cellular morphology score, donor 2
[13] = lowest concentration causing an increase in cellular morphology score

Structure (SMILES)	ALT Donor 1 [1, 7]	ALT Donor 2 [1, 7]	Morphology Donor 1 ([2]; human)	Morphology Donor 2 ([2]; human)	Chip MOS both donors (human Liver-Chip)	Chip MOS donor 1 (human Liver-Chip)	Chip MOS donor 2 (human Liver-Chip)	Liver-Chip toxicity determination, MOS-like figure against threshold value of 50 (human Liver-Chip)	Garside DILI rank [5]	Albumin IC50 Donor 1 [6, 9]	Albumin IC50 Donor 2 [6, 9]	ALT Donor 1 [1, 10]	ALT Donor 2 [1, 10]	ALT Donor 3 [1, 10]	Morphology Donor 1 [2, 11]	Morphology Donor 2 [2, 12]	Morphology Donor 3 [2, 13]	other results
CC(C(=O)O)c1ccc2oc(-c3ccc(Cl)cc3)nc2c1 (stereo not drawn) [Benoxaprofen]	> 100 unbound human Cmax multiplier	100 unbound human Cmax multiplier	< 0.1 unbound human Cmax multiplier	100 unbound human Cmax multiplier	0.001	0.001	0.3	hepatotoxic	1	–	–	–	–	–	–	–	–	Human Cmax Total ([3]; human, total plasma Cmax, ref Chatsiricharoenkul, S., Niyomnaitham, Pongnarin, P., Sathirakul, K. & Kongpatanakul, S. (66)): 149100 nM; Expected Fraction Unbound in Plasma ([4]; plasma, ref Scott, L. J. (69)): 0.01
CCOC(=O)CN[C@@H](C(=O)N1CC[C@H]1C(=O)NCc1ccc(/C(N)=N\O)cc1)C1CCCCC1 [Ximelagatran]	30 unbound human Cmax multiplier	> 300 unbound human Cmax multiplier	100 unbound human Cmax multiplier	300 unbound human Cmax multiplier	30	30	300	only toxic in one of the donors tested	–	–	–	–	–	–	–	–	–	Albumin IC50 Donor 1 [6, 8]: 32 unbound human Cmax multiplier; Albumin IC50 Donor 2 [6, 8]: > 300 unbound human Cmax multiplier; Human Cmax Total ([3]; human therapeutic total plasma Cmax from literature, ref Sivapalasingam, S. & Steigbigel, N. (67)): 450 nM; Expected Fraction Unbound in Plasma ([4]; human plasma, no reference printed (-)): 1
O=c1[nH]c(=O)n([C@@H]2O[C@H](CO)[C@@H](O)[C@@H]2F)cc1I [Fialuridine]	–	–	>300 multiples of the unbound human Cmax	>300 multiples of the unbound human Cmax	0.1	0.1	2.8	–	1	<0.1 multiples of the unbound human Cmax	<1 multiples of the unbound human Cmax	>300 multiples of the unbound human Cmax	>300 multiples of the unbound human Cmax	–	–	–	–	Human Cmax Total ([3]; human, total plasma Cmax, ref Vorrink, S. U., Zhou, Y., Ingelman- Sundberg, M. & Lauschke, V.M. (30)): 640 nM
Cc1cc2c(s1)Nc1ccccc1N=C2N1CCN(C)CC1 [Olanzapine]	–	–	–	–	>20	>20	>2	–	5	–	–	>300 multiples of the unbound human Cmax	>300 multiples of the unbound human Cmax	>300 multiples of the unbound human Cmax	>300 multiples of the unbound human Cmax	>300 multiples of the unbound human Cmax	>300 multiples of the unbound human Cmax	Morphology Score ([2]; Concentration_Day3 = 1): 2 and 1; Morphology Score ([2]; Concentration_Day3 = 3): 1.333 and 1; Morphology Score ([2]; Concentration_Day3 = 10): 2 and 1; Morphology Score ([2]; Concentration_Day3 = 30): 2; Morphology Score ([2]; Concentration_Day3 = 100): 1.667 and 1.333; Morphology Score ([2]; Concentration_Day3 = 300): 1.333 and 2; Human Cmax Total ([3]; human, total plasma Cmax, ref Brunton, L. L., Hilal-Dandan, R. & Knollmann, B. C. (72)): 0.09 nM; Expected Fraction Unbound in Plasma ([4]; plasma, reference data from the literature, no reference): 0.07
COC(c1ccccc1)(c1ccccc1)[C@H](Oc1nc(C)cc(C)n1)C(=O)O [Ambrisentan]	–	–	–	–	>10	>3	>10	–	5	>300 multiples of the unbound human Cmax	>1000 multiples of the unbound human Cmax	>300 multiples of the unbound human Cmax	>1000 multiples of the unbound human Cmax	>300 multiples of the unbound human Cmax	>300 multiples of the unbound human Cmax	>1000 multiples of the unbound human Cmax	>300 multiples of the unbound human Cmax	Albumin IC50 Donor 3 ([6]; concentration causing a 50% reduction in albumin production, donor 3): >300 multiples of the unbound human Cmax; Human Cmax Total ([3]; human, total plasma Cmax, ref Proctor, W.R. et al. (29)): 790 nM
